Reference: the NIST ThermoML archive (doi:10.1016/j.jct.2012.02.007)
± gives the expanded uncertainty stated by the source.

Legend:
[1] = mn = molality of the nth substance listed, in mol/kg; conditions: 101.3 kPa, Liquid; for speed of sound: Sing-around technique in a fixed-path interferometer; for mass density: Vibrating tube method
[2] = osmotic coefficient (dimensionless); mn = molality of the nth substance listed, in mol/kg; conditions: 323.15 K, Liquid, Vapor Pressure Osmometer

CCCCn1cc[n+](C)c1.N#CN=C=[N-] [1-butyl-3-methylimidazolium dicyanamide] + CCCCCO
[1]
Conditions | mass density, 293.15 K [kg/m3] | mass density, 308.15 K [kg/m3] | mass density, 323.15 K [kg/m3] | speed of sound, 293.15 K [m/s] | speed of sound, 308.15 K [m/s] | speed of sound, 323.15 K [m/s]
m1 = 0.0499 | 816.84 ± 0.24 | 805.86 ± 0.24 | 794.56 ± 0.24 | 1296.1 ± 1.3 | 1246.2 ± 1.3 | 1196.7 ± 1.3
m1 = 0.1005 | 818.99 ± 0.24 | 808.05 ± 0.24 | 796.79 ± 0.24 | 1299.3 ± 1.3 | 1249.5 ± 1.3 | 1200.3 ± 1.3
m1 = 0.1579 | 821.34 ± 0.24 | 810.43 ± 0.24 | 799.21 ± 0.24 | 1302.8 ± 1.3 | 1253.2 ± 1.3 | 1204.2 ± 1.3
m1 = 0.2012 | 823.14 ± 0.25 | 812.25 ± 0.25 | 801.07 ± 0.25 | 1305.5 ± 1.3 | 1256 ± 1.3 | 1207.2 ± 1.3
m1 = 0.2575 | 825.39 ± 0.25 | 814.53 ± 0.25 | 803.38 ± 0.25 | 1308.7 ± 1.4 | 1259.4 ± 1.3 | 1210.8 ± 1.3
m1 = 0.5093 | 834.72 ± 0.26 | 823.96 ± 0.26 | 812.96 ± 0.26 | 1322.3 ± 1.4 | 1273.7 ± 1.4 | 1225.8 ± 1.4
m1 = 0.7636 | 843.46 ± 0.27 | 832.73 ± 0.27 | 821.84 ± 0.27 | 1334.4 ± 1.4 | 1286.4 ± 1.4 | 1238.6 ± 1.4
m1 = 1.022 | 851.58 ± 0.29 | 840.96 ± 0.29 | 830.18 ± 0.29 | 1346.7 ± 1.5 | 1299.3 ± 1.5 | 1252.8 ± 1.4
m1 = 1.271 | 858.96 ± 0.3 | 848.35 ± 0.3 | 837.65 ± 0.3 | 1357 ± 1.5 | 1310.2 ± 1.5 | 1263.7 ± 1.5
m1 = 1.52 | 865.82 ± 0.31 | 855.32 ± 0.31 | 844.69 ± 0.31 | 1367.7 ± 1.5 | 1321.4 ± 1.5 | 1275.9 ± 1.5
m1 = 1.766 | 872.07 ± 0.32 | 861.65 ± 0.32 | 851.09 ± 0.32 | 1377 ± 1.5 | 1331.2 ± 1.5 | 1286.1 ± 1.5
m1 = 1.982 | 877.32 ± 0.33 | 866.91 ± 0.33 | 856.41 ± 0.33 | 1385 ± 1.6 | 1339.5 ± 1.6 | 1294.8 ± 1.5
m1 = 2.527 | 889.3 ± 0.36 | 878.99 ± 0.36 | 868.61 ± 0.35 | 1403.6 ± 1.6 | 1358.9 ± 1.6 | 1315.1 ± 1.6
m1 = 2.998 | 898.47 ± 0.38 | 888.26 ± 0.37 | 877.98 ± 0.37 | 1418.4 ± 1.6 | 1374.3 ± 1.6 | 1331.1 ± 1.6
m1 = 3.512 | 907.39 ± 0.4 | 897.32 ± 0.39 | 887.14 ± 0.39 | 1432.6 ± 1.7 | 1389.6 ± 1.7 | 1347 ± 1.7

[2]
Conditions | osmotic coefficient
m1 = 0.0625 | 0.784 ± 0.014
m1 = 0.0829 | 0.719 ± 0.016
m1 = 0.1019 | 0.669 ± 0.017
m1 = 0.2131 | 0.627 ± 0.018
m1 = 0.3093 | 0.596 ± 0.019
m1 = 0.4113 | 0.582 ± 0.019
m1 = 0.5349 | 0.566 ± 0.019
m1 = 0.8273 | 0.537 ± 0.02
m1 = 1.131 | 0.52 ± 0.021
m1 = 1.443 | 0.509 ± 0.021
m1 = 1.749 | 0.502 ± 0.021
m1 = 2.246 | 0.493 ± 0.022
m1 = 2.756 | 0.478 ± 0.022
m1 = 3.23 | 0.458 ± 0.023
